The results in this text go back to patent US20230049231A1 (priority 2019, published 2023).

One assay has as its target T1, hERG channel (Homo sapiens, UniProt Q12809).
T1 construct: expressed in transfected cells
As to the kind of experiment: hERG electrophysiology, automated whole-cell patch clamp (Patchliner). Type of assay: cell-based. A digest of the protocol: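 Automated whole-cell patch clamp on CHO-K1 cells stably expressing hERG; 30 nM–100 μM applied cumulatively to the same cell, ≤0.3% DMSO. Pulses: −80 mV holding, +20 mV for 300 ms, −50 mV for 300 ms tail, 0.3 Hz, 70 per concentration. Last-pulse AUC and peak, normalized to control, were fitted to a Hill equation for IC50.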
A general note: Block of hERG is tested as a sign of cardiac risk.

A further assay deals with T2, Kv1.3 potassium channel (Homo sapiens, UniProt P22001).
T2 construct: expressed in transfected cells
T2 sequence (P22001 whole entry): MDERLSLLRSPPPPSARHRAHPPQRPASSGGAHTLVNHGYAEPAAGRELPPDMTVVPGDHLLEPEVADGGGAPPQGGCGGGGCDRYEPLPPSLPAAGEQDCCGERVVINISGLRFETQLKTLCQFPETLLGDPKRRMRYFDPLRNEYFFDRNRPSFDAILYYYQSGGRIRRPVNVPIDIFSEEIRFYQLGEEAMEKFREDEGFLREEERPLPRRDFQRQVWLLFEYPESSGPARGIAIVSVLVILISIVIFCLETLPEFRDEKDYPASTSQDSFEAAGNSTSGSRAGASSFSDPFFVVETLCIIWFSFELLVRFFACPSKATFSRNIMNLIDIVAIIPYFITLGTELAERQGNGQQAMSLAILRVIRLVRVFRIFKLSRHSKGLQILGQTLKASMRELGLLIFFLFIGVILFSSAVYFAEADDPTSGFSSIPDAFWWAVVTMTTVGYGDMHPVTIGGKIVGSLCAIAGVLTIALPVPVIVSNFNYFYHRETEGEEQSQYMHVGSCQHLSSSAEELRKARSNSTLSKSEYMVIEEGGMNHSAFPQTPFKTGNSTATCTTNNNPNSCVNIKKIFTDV
As to the kind of experiment: Kv1.3 potassium channel blocker activity, automated whole-cell patch clamp (Patchliner). It counts as cell-based. A digest of the protocol: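 IC50 came from Hill-equation fits of peak and AUC currents from the final pulse at each concentration, normalized to compound-free control. Compounds applied consecutively at 30 nM to 100 μM (up to 0.3% DMSO) to Kv1.3-expressing CHO-K1 cells, P/4 leak subtraction. Pulses were +40 mV, 100 ms, from −90 mV holding, at 0.1 Hz on Patchliner.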
On the technique in general: In patch-clamp work, channel activity is measured electrically.

[1] abbreviates: hERG channel, whole-cell patch clamp.
The mark [2] stands for this setting: Kv1.3 potassium channel, whole-cell patch clamp.
Setting [3] is: CHO-K1 cells stably expressing hERG, +20 mV 300 ms, -50 mV 300 ms tail current, 0.3 Hz.
[4] abbreviates: CHO-K1 cells stably expressing Kv1.3, 100 ms pulses from -90 mV to +40 mV, 0.1 Hz.

Bounds are passed on as bounds.

T1 sequence (Q12809 whole entry): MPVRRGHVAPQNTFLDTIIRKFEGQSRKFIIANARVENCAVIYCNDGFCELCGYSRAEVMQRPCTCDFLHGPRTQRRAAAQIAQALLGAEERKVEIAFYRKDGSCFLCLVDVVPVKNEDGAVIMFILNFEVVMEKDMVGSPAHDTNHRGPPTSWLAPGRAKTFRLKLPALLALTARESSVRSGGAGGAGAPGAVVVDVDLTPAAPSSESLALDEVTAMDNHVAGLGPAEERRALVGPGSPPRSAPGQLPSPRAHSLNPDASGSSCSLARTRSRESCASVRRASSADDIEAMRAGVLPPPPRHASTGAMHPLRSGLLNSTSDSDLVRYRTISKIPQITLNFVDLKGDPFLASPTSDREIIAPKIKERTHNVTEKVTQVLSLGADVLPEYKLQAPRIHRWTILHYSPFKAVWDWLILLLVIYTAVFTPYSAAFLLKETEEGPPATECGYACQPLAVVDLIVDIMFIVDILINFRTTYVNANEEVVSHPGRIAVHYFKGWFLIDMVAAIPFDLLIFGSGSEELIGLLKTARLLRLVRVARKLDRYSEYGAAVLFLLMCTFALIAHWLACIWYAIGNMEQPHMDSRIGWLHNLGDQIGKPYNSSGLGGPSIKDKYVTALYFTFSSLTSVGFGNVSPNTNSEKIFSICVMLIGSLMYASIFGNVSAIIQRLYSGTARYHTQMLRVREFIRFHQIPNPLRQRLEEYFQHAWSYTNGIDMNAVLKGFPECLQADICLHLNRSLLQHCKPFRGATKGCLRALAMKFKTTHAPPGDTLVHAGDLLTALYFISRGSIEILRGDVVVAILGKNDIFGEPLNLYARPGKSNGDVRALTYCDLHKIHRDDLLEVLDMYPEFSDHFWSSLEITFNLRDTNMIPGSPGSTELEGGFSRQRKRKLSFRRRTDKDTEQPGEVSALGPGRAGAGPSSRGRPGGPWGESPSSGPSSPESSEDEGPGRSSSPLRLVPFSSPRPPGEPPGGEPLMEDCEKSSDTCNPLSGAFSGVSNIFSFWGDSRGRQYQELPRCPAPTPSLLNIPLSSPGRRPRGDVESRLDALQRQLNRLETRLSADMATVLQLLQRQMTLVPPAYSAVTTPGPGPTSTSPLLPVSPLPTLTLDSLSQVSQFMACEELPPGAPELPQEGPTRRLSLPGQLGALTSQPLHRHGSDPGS

As usually defined, the IC50 is the midpoint of a concentration-inhibition curve. Read a low IC50 as greater potency. In the case of `O=C1CN([C@H]2COC[C@@H]2O)C[C@@H]2C[C@H](c3c(O)ccc(Cl)c3Cl)CN12` (relative stereo) [Compound 154, (7R,8aS)-7-(2,3-dichloro-6-hydroxyphenyl)-2-[(3S,4R)-rel-4-hydroxyoxolan-3-yl]-hexahydropyrrolo [1,2-a]pyrazin-4-one], the IC50 was over 30 µM at hERG channel (setting [1]) and under 1 µM at Kv1.3 potassium channel (setting [2]).

Regarding `NC(=O)N1CCC(=O)N2C[C@@H](c3c(O)ccc(Cl)c3Cl)C[C@H]2C1` [Compound 97, (8R,9aS)-8-(2,3-dichloro-6-hydroxyphenyl)-5-oxo-hexahydro-1H-pyrrolo [1,2-a][1,4]diazepine-2-carboxamide], the half-inhibitory concentration (IC50) on hERG channel (setting [1]) was over 30 µM; at Kv1.3 potassium channel (setting [2]), under 1 µM.

For the molecule `O=C(CO)NC[C@H]1OC(=O)N2C[C@@H](c3c(O)ccc(Cl)c3Cl)C[C@@H]12` (single isomer, unassigned) [Compound 275], the figures for the half-maximal inhibitory concentration (IC50) at hERG channel (setting [1]) and against Kv1.3 potassium channel (setting [2]) were over 30 µM and under 1 µM, respectively.

Turning to `O=C(N1CC[C@H](O)C1)N1CC(=O)N2C[C@@H](c3c(O)ccc(Cl)c3Cl)C[C@H]2C1` [Compound 102, (7R,8aS)-7-(2,3-dichloro-6-hydroxyphenyl)-2-[(3S)-3-hydroxypyrrolidine-1-carbonyl]-hexahydropyrro[1,2-a]pyrazine-4-one], the figures for the IC50 against hERG channel (setting [1]) and at Kv1.3 potassium channel (setting [2]) were over 30 µM and under 1 µM, respectively.

For the molecule `O=C1CN([C@@H]2CC[C@H]2O)C[C@@H]2C[C@H](c3c(O)ccc(Cl)c3Cl)CN12` (relative stereo) [Compound 159, (7R,8aS)-7-(2,3-dichloro-6-hydroxyphenyl)-2-[(1S,2S)-rel-2-hydroxycyclobutyl]-hexahydropyrrolo[1,2-a]pyrazin-4-one], the IC50 was over 30 µM against hERG channel (setting [1]) and under 1 µM against Kv1.3 potassium channel (setting [2]).

On to `O=C1CN(C(CO)CO)C[C@@H]2C[C@H](c3c(O)ccc(Cl)c3Cl)CCN12` [Compound 122, (8R,9aS)-8-(2,3-dichloro-6-hydroxyphenyl)-2-(1,3-dihydroxypropan-2-yl)-hexahydro-1H-pyrido[1,2-a] pyrazin-4-one], for which the IC50 against hERG channel (setting [1]) was over 30 µM; on Kv1.3 potassium channel (setting [2]) it was under 1 µM.

As to `O=C(CO)N1CC(=O)N2CC[C@@H](c3c(O)ccc(Cl)c3Cl)C[C@H]2C1` [Compound 1, (8R,9aS)-8-(2,3-dichloro-6-hydroxyphenyl)-2-(2-hydroxyacetyl)-hexahydro-1H-pyrido[1,2-a]pyrazin-4-one], the IC50 is over 30 µM at hERG channel (setting [3]) and under 1 µM against Kv1.3 potassium channel (setting [4]).

Turning to `COC[C@H](O)CN1CC(=O)N2C[C@@H](c3c(O)ccc(Cl)c3Cl)C[C@H]2C1` (single isomer, unassigned; isomer 2) [Compound 153], the 50% inhibitory concentration (IC50) against hERG channel (setting [1]) was under 30 µM; against Kv1.3 potassium channel (setting [2]), under 1 µM.

With `O=C1CC(N2CCNCC2)C[C@@H]2C[C@H](c3c(O)ccc(Cl)c3Cl)CN12` (stereo in doubt) [Compound 208, (2R,7R,8aS)-2-(2,3-dichloro-6-hydroxyphenyl)-7-(piperazin-1-yl)hexahydroindolizin-5(1H)-one], the IC50 against hERG channel (setting [1]) was under 10 µM; against Kv1.3 potassium channel (setting [2]), under 1 µM.

With `C[C@H](O)C(=O)N1CC(=O)N2CC[C@@H](c3c(O)ccc(Cl)c3Cl)C[C@H]2C1` [Compound 49, (8R,9aS)-8-(2,3-dichloro-6-hydroxyphenyl)-2-[(2S)-2-hydroxypropanoyl]-hexahydro-1H-pyrido[1,2-a]pyrazin-4-one], the IC50 is over 30 µM at hERG channel (setting [3]) and under 1 µM against Kv1.3 potassium channel (setting [4]).

`O=C1CN([C@H]2CCNC2)C[C@@H]2C[C@H](c3c(O)ccc(Cl)c3Cl)CN12` [Compound 142, (7R,8aS)-7-(2,3-dichloro-6-hydroxyphenyl)-2-[(3S)-pyrrolidin-3-yl]-hexahydropyrrolo [1,2-a]pyrazin-4-one]: the IC50 was over 30 µM at hERG channel (setting [1]) and under 1 µM on Kv1.3 potassium channel (setting [2]).

Regarding `O=C1CN([C@H]2C[C@](O)(CO)C2)C[C@@H]2C[C@H](c3c(O)ccc(Cl)c3Cl)CN12` (single isomer, unassigned; isomer 1) [Compound 163], the IC50 against hERG channel (setting [1]) is over 30 µM; against Kv1.3 potassium channel (setting [2]), under 1 µM.

Take `CN(C)[C@@H]1CC(=O)N2C[C@@H](c3c(O)ccc(Cl)c3Cl)C[C@H]2C1` (single isomer, unassigned) [Compound 200]: the IC50 against hERG channel (setting [1]) is under 10 µM; against Kv1.3 potassium channel (setting [2]) it was under 1 µM.

On to `O=C1[C@@H](CO)NC[C@@H]2C[C@H](c3c(O)ccc(Cl)c3Cl)CCN12` [Compound 57, (3R,8R,9aS)-8-(2,3-dichloro-6-hydroxyphenyl)-3-(hydroxymethyl)-octahydropyrido[1,2-a]pyrazin-4-one], for which the IC50 was over 30 µM against hERG channel (setting [3]) and under 1 µM at Kv1.3 potassium channel (setting [4]).

Take `CNC[C@@H]1CC(=O)N2C[C@@H](c3c(O)ccc(Cl)c3Cl)C[C@H]2C1` (single isomer, unassigned) [Compound 239]: the values for the IC50 at hERG channel (setting [1]) and against Kv1.3 potassium channel (setting [2]) were over 30 µM and under 1 µM, respectively.

Take `O=C1O[C@H](CCO)[C@@H]2C[C@H](c3c(O)ccc(Cl)c3Cl)CN12` (single isomer, unassigned) [Compound 270]: the IC50 on hERG channel (setting [1]) was under 30 µM; at Kv1.3 potassium channel (setting [2]) it was under 1 µM.

For `O=C1CN(c2ncn[nH]2)C[C@@H]2C[C@H](c3c(O)ccc(Cl)c3Cl)CN12` [Compound 175, (7R,8aS)-7-(2,3-dichloro-6-hydroxyphenyl)-2-(1H-1,2,4-triazol-5-yl)hexahydropyrrolo[1,2-a]pyrazin-4(1H)-one], the IC50 against hERG channel (setting [1]) was over 30 µM; against Kv1.3 potassium channel (setting [2]) it was under 1 µM.

For `O=C(N1CC(O)C1)N1CC(=O)N2C[C@@H](c3c(O)ccc(Cl)c3Cl)C[C@H]2C1` [Compound 47, (7R,8aS)-7-(2,3-dichloro-6-hydroxypheny1)-2-(3-hydroxyazetidine-1-carbonyl)-hexahydropyrrolo[1,2-a]pyrazin-4-one], the results for the IC50 against hERG channel (setting [3]) and against Kv1.3 potassium channel (setting [4]) were over 30 µM and under 1 µM, respectively.

As for `O=C1CN(CC2(O)CNC2)C[C@@H]2C[C@H](c3c(O)ccc(Cl)c3Cl)CN12` [Compound 157, (7R,8aS)-7-(2,3-dichloro-6-hydroxyphenyl)-2-[(3-hydroxyazetidin-3-yl)methyl]-hexahydropyrrolo[1,2-a]pyrazin-4-one;], the IC50 against hERG channel (setting [1]) was over 30 µM; on Kv1.3 potassium channel (setting [2]), under 1 µM.

Regarding `O=C1C[C@H](CN2CC(O)C2)C[C@@H]2C[C@H](c3c(O)ccc(Cl)c3Cl)CN12` (single isomer, unassigned) [Compound 243], the concentration for half-maximal inhibition (IC50) against hERG channel (setting [1]) was under 30 µM; at Kv1.3 potassium channel (setting [2]), under 1 µM.

Regarding `O=C(NC1CNC1)[C@H]1CC(=O)N2C[C@@H](c3c(O)ccc(Cl)c3Cl)C[C@H]2C1` (single isomer, unassigned) [Compound 235], the IC50 was over 30 µM at hERG channel (setting [1]) and under 1 µM against Kv1.3 potassium channel (setting [2]).

In the case of `O=C([C@H](O)CO)N1CC(=O)N2CC[C@H](c3c(O)ccc(Cl)c3Cl)C[C@@H]2C1` (relative stereo) [Compound 10, (8S,9aR)-rel-8-(2,3-dichloro-6-hydroxyphenyl)-2-[(2R)-2,3-dihydroxypropanoyl]-hexahydro-1H-pyrido[1,2-a]pyrazin-4-one], the IC50 against hERG channel (setting [3]) is over 30 µM; on Kv1.3 potassium channel (setting [4]) it was under 1 µM.

Turning to `O=C1C[C@H](N2CC(=O)N3C[C@@H](c4c(O)ccc(Cl)c4Cl)C[C@H]3C2)CN1` (single isomer, unassigned; isomer 2) [Compound 161], the results for the IC50 at hERG channel (setting [1]) and against Kv1.3 potassium channel (setting [2]) were over 30 µM and under 1 µM, respectively.

On to `O=C1CN([C@H]2C[C@@](O)(CO)C2)C[C@@H]2C[C@H](c3c(O)ccc(Cl)c3Cl)CN12` (single isomer, unassigned; isomer 2) [Compound 164], for which the IC50 is over 30 µM on hERG channel (setting [1]) and under 1 µM against Kv1.3 potassium channel (setting [2]).

As to `O=C1CN([C@H]2C[C@@H](O)[C@@H](O)C2)C[C@@H]2C[C@H](c3c(O)ccc(Cl)c3Cl)CN12` (relative stereo) [Compound 130, (7R,8aS)-7-(2,3-dichloro-6-hydroxyphenyl)-2-[(1R,3R,4S)-rel-3,4-dihydroxycyclopentyl]-hexahydropyrrolo [1,2-a]pyrazin-4-one], the concentration for half-maximal inhibition (IC50) against hERG channel (setting [1]) is over 30 µM; against Kv1.3 potassium channel (setting [2]), under 1 µM.

Take `O=C1O[C@H](CO)[C@@H]2C[C@H](c3c(O)ccc(Cl)c3Cl)CN12` (single isomer, unassigned) [Compound 254]: the IC50 was over 30 µM at hERG channel (setting [1]) and under 1 µM against Kv1.3 potassium channel (setting [2]).

Take `C[C@H](O)CC(=O)N1CC(=O)N2C[C@@H](c3c(O)ccc(Cl)c3Cl)C[C@H]2C1` [Compound 59, (7R,8aS)-7-(2,3-dichloro-6-hydroxyphenyl)-2-[(3S)-3-hydroxybutanoyl]-hexahydropyrrolo[1,2-a]pyrazin-4-one]: the IC50 at hERG channel (setting [3]) is over 30 µM; on Kv1.3 potassium channel (setting [4]) it was under 1 µM.

For `CC1(C)OC(=O)N2C[C@@H](c3c(O)ccc(Cl)c3Cl)C[C@H]2C1O` (stereo partly drawn) [Compound 257, (4aS,6R)-6-(2,3-dichloro-6-hydroxyphenyl)-4-hydroxy-3,3-dimethylhexahydro-1H-pyrrolo[1,2-c][1,3]oxazin-1-one], the IC50 is over 30 µM against hERG channel (setting [1]) and under 1 µM at Kv1.3 potassium channel (setting [2]).

Regarding `O=C1CN(c2cnc(CO)cn2)C[C@@H]2C[C@H](c3c(O)ccc(Cl)c3Cl)CN12` [Compound 172], the half-inhibitory concentration (IC50) against hERG channel (setting [1]) was under 30 µM; on Kv1.3 potassium channel (setting [2]) it was under 1 µM.

In the case of `O=C1CN(C2CCNCC2)C[C@@H]2C[C@H](c3c(O)ccc(Cl)c3Cl)CN12` [Compound 141, (7R,8aS)-7-(2,3-dichloro-6-hydroxyphenyl)-2-(piperidin-4-yl)-hexahydropyrrolo [1,2-a]pyrazin-4-one], the values for the IC50 on hERG channel (setting [1]) and against Kv1.3 potassium channel (setting [2]) were over 30 µM and under 1 µM, respectively.
